Test results from patent publication US4552882A, “7-(1-Pyrrolyl) derivatives of 1-ethyl-1,4-dihydro-4-oxoquinoline-3-carboxylic acids and 1-ethyl-1,4-dihydro-4-oxo-1,8-naphthyridine-3-carboxylic acids and their use as antimicrobial agents” (Provesan, SA, priority 1983, dated 1985).
Converted amounts (≈) assume the structure as drawn.

Columns and labels:
Experiment in all cases: MIC in vitro
[1] = test system: Enterobacter aerogenes ATCC 15038; assay type: cell-based; conditions: Klebsiella aerogenes, ATCC15038, Dextrose agar, 37° C., 20 hours
From the text: (§1) (G. L. Daquet and Y. A. Chabbect, Techniques en bacteriologie (Bacteriological techniques), vol. 3, Flammarion Medecine Sciences, Paris, 1972 and W. B. Hugo and A. D. Rusell, Pharmaceutical Microbiology, Blackwell Scientific Publications, London, (1977)). Antibiotic medium no. 1 (seed agar) (Oxoid CM 327) Tryptone-soya broth (Oxoid CM 129) Ringer's physiological solution 1/4 (oxoid BR 52) Dextrose agar (BBL-11165) 0.1 N NaOH "Enterobacter aerogenes" ATCC 15038 Each of the microorganisms is seeded by streaking in tubes of Antibiotic medium No. 1 (seed agar), which are then incubated at 37° C. for 20 hours. Using a culture loop, the cultures are then seeded in tryptone-soyabroth and incubated at 37° C. for 20 hours. The culture obtained is diluted to 1/4 with Ringer's physiological solution, so as to obtain a standardized suspension of 10^7 -10^9 cfu/ml for each organism. Starting from a solution of 1,000 μg/ml in 0.1 N NaOH, each product is diluted in Dextrose agar (previously melted and maintained at 50° C.), with successive dilutions so as to obtain the following concentrations: 64--32--16--8--4--2--1--0.5--0.25--0.125 μg of derivative/ml medium. For each product, the solution of each concentration is subsequently distributed into Petri dishes 10 cm in diameter, with 10 ml of medium per dish and the same number of dishes as microorganisms to be tested. As soon as the medium has cooled, the dishes are seeded with the inoculations using 0.4 ml of inoculation per dish. They are spread with a Driglasky loop and the supernatant is removed. The seeded dishes are incubated at 37° C. for 20 hours.

[2] = test system: Enterobacter cloacae CHSP 20; assay type: cell-based; conditions: CHSP20, Dextrose agar, 37° C., 20 hours
Description: as §1, with “cloacae" CHSP 20” for “aerogenes" ATCC 15038”

[3] = test system: Pseudomonas aeroginosa ADSA 47; assay type: cell-based, Pseudomonas aeruginosa; conditions: ADSA47, Dextrose agar, 37° C., 20 hours
Description: as §1, with “"Pseudomonas aeruginosa" ADSA 47” for “"Enterobacter aerogenes" ATCC 15038”

Row | SMILES | MIC [1] [µg/mL] | MIC [2] [µg/mL] | MIC [3] [µg/mL]
1 | CCn1cc(C(=O)O)c(=O)c2ccc(-n3cccc3)cc21 [Example 1, 7-(1-pyrrolyl)-1-ethyl-1,4-dihydro-4-oxo-3-quinolinecarboxylic acid] | > 64 | 16 (≈ 56.7 µM) | > 64
2 | CCn1cc(C(=O)O)c(=O)c2cc(F)c(-n3cccc3)cc21 [Example 2, 6-fluoro-7-(1-pyrrolyl)-1-ethyl-1,4-dihydro-4-oxo-3-quinolinecarboxylic acid] | 8 (≈ 26.6 µM) | 1 (≈ 3.33 µM) | 64 (≈ 213 µM)
3 | CCn1cc(C(=O)O)c(=O)c2ccc(-n3cccc3)nc21 [Example 3, 1-ethyl-1,4-dihydro-4-oxo-7-(1-pyrrolyl)-1,8-naphthyridine-3-carboxylic acid] | > 64 | 8 (≈ 28.2 µM) | > 64
4 | CCn1cc(C(=O)O)c(=O)c2cc(F)c(-n3cccc3)nc21 [Example 4, 1-ethyl-1,4-dihydro-4-oxo-6-fluoro-7-(1-pyrrolyl)-1,8-naphthyridine-3-carboxylic acid] | 4 (≈ 13.3 µM) | 2 (≈ 6.64 µM) | > 64
5 | CCn1cc(C(=O)O)c(=O)c2cnc(N3CCNCC3)nc21 [Pipemidic acid, reference compound] | 32 (≈ 105 µM) | 8 (≈ 26.4 µM) | 32 (≈ 105 µM)
